Values of other authors, collected in patent US20040142914A1, “Extended transdermal contraceptive regimens” (priority 2002, published 2004).

Conditions: humans

share of norgestimate converted to norelgestromin in vivo: ≥ 80%
Compound: C#C[C@]1(OC(C)=O)CC[C@H]2[C@@H]3CCC4=CC(=NO)CC[C@@H]4[C@H]3CC[C@@]21CC (mixture of isomers) [norgestimate]
